Data published in patent publication US10865191B2, “Heterocyclic compounds useful as modulators of TNF alpha” (BRISTOL-MYERS SQUIBB COMPANY, priority 2015, dated 2020).

Target: TNFα (Homo sapiens, UniProt P01375)
Assay: TNF induced HEK-Blue assay (NF-kB-driven secreted alkaline phosphatase reporter)
Type: cell-based
Details: TNF induced HEK-Blue assay IC50 value, TNFα 0.5 ng/mL, HEK-Blue-CD40L cells, 18 h
Outline: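 HEK-Blue-CD40L cells (NF-kB-driven SEAP reporter), 20,000/well, added after 30 min pre-incubation of compound (0.004–25 μM final) with TNFα 0.5 ng/mL final at 37 °C; 18 h incubation. SEAP read with QUANTI-Blue at 620 nm; IC50 from 4-parameter logistic fit, normalized to unstimulated and stimulated DMSO controls.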

Chain of TNFα (P01375 77-233 limits assumed): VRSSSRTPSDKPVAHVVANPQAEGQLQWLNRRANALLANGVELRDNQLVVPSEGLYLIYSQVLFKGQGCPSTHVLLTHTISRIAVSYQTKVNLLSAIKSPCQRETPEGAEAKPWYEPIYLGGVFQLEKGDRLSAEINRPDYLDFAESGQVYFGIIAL

Compared with `CC(Nc1c(Cl)cnc2ccc(-c3cnc(C(C)(C)O)nc3)cc12)c1ccc(F)cc1` (racemic) [Example 157, 2-(5-(3-chloro-4-((1-(4-fluorophenyl)ethyl)amino)quinolin-6-yl)pyrimidin-2-yl)propan-2-ol], `CC(Nc1c(Cl)cnc2ccc(-c3cnc(C(C)(C)O)nc3)cc12)c1ccccc1F` (racemic) [Example 152, 2-(5-(3-chloro-4-((1-(2-fluorophenyl)ethyl)amino)quinolin-6-yl)pyrimidin-2-yl)propan-2-ol] is lower in IC50: 10000 to 25000 nM for the first, less than 1000 nM for the second.

Molecule `Cc1nc2cc(F)c(-c3cnc(C(C)(C)O)nc3)nc2c(N[C@H](C)c2cc(C#N)ccc2F)c1Cl` [Example 586, (R)-3-(1-((3-chloro-7-fluoro-6-(2-(2-hydroxypropan-2-yl)pyrimidin-5-yl)-2-methyl-1,5-naphthyridin-4-yl)amino)ethyl)-4-fluorobenzonitrile] has an IC50 of less than 1000 nM.

Same assay, conditions: TNFα 0.5 ng/mL, HEK-Blue-CD40L cells, 18 h; read-out: TNF induced HEK-Blue assay IC50 value

First: Cc1c(-c2ccc(F)c([C@@H](C)Nc3c(Cl)cnc4ccccc34)c2)cnn1C [Example 474, (R)-3-chloro-N-(1-(5-(1,5-dimethyl-1H-pyrazol-4-yl)-2-fluorophenyl)ethyl)quinolin-4-amine]
Second: Cc1cc(-c2ccc(F)c([C@@H](C)Nc3c(Cl)cnc4ccccc34)c2)cnn1 [Example 477, (R)-3-chloro-N-(1-(2-fluoro-5-(6-methylpyridazin-4-yl)phenyl)ethyl)quinolin-4-amine]
The IC50 of the first is lower: less than 1000 nM for the first, 1000 to 10000 nM for the second. The first is the more potent here.

`CC(C)(O)c1ncc(-c2nc3c(N[C@@H](c4cc(CO)ccc4F)C(F)F)c(Cl)cnc3cc2F)cn1` [Example 501, (S)-2-(5-(7-chloro-8-((2,2-difluoro-1-(2-fluoro-5-(hydroxymethyl)phenyl)ethyl)amino)-3-fluoro-1,5-naphthyridin-2-yl)pyrimidin-2-yl)propan-2-ol] and `CC(C)(O)c1ncc(-c2nc3c(N[C@H](c4cc(CO)ccc4F)C(F)F)c(Cl)cnc3cc2F)cn1` [Example 486, (R)-2-(5-(7-chloro-8-((2,2-difluoro-1-(2-fluoro-5-(hydroxymethyl)phenyl)ethyl)amino)-3-fluoro-1,5-naphthyridin-2-yl)pyrimidin-2-yl)propan-2-ol] cannot be ordered by IC50: less than 1000 nM for the first, less than 1000 nM for the second.

`Cc1ccccc1-c1ccc(F)c([C@@H](C)Nc2c(Cl)c(C)nc3ccc(-c4cnc(C(C)(C)O)nc4)cc23)c1` [Example 332, (R)-2-(5-(3-chloro-4-((1-(4-fluoro-2′-methyl-[1,1′-biphenyl]-3-yl)ethyl)amino)-2-methylquinolin-6-yl)pyrimidin-2-yl)propan-2-ol] and `Cc1nc2ccc(-c3cnc(C(C)(C)O)nc3)cc2c(N[C@H](C)c2ccccc2F)c1Cl` [Example 441, (R)-2-(5-(3-chloro-4-((1-(2-fluorophenyl)ethyl)amino)-2-methylquinolin-6-yl)pyrimidin-2-yl)propan-2-ol] cannot be ordered by IC50: less than 1000 nM for the first, less than 1000 nM for the second.

Compared with `Cc1nc2ccc(-c3cnc(C(C)(C)O)nc3)cc2c(N[C@H](C)c2cccc(OCC(=O)O)c2)c1Cl` [Example 438, (R)-2-(3-(1-((3-chloro-6-(2-(2-hydroxypropan-2-yl)pyrimidin-5-yl)-2-methylquinolin-4-yl)amino)ethyl)phenoxy)acetic acid], `Cc1nc2cc(F)c(-c3cnc(C(C)(C)O)nc3)cc2c(N[C@H](C)c2cccc(C#N)c2)c1Cl` [Example 383, (R)-3-(1-((3-chloro-7-fluoro-6-(2-(2-hydroxypropan-2-yl)pyrimidin-5-yl)-2-methylquinolin-4-yl)amino)ethyl)benzonitrile] is lower in IC50: 1000 to 10000 nM for the first, less than 1000 nM for the second. The second is the more potent here.

First: CC(Cc1cccc2[nH]ccc12)Nc1c(Cl)cnc2ccc(-c3cnc(C(C)(C)O)nc3)cc12 (racemic) [Example 144, 2-(5-(4-((1-(1H-indol-4-yl)propan-2-yl)amino)-3-chloroquinolin-6-yl)pyrimidin-2-yl)propan-2-ol]
Second: C[C@@H](Nc1c(Cl)cnc2ccc(-c3cnc(C(C)(C)O)nc3)cc12)c1cc(C(O)CO)ccc1F (mixture of isomers) [Example 398, 1-(3-((R)-1-((3-chloro-6-(2-(2-hydroxypropan-2-yl)pyrimidin-5-yl)quinolin-4-yl)amino)ethyl)-4-fluorophenyl)ethane-1,2-diol]
The IC50 of the first is higher: 1000 to 10000 nM for the first, less than 1000 nM for the second. The second is the more potent here.

`CC(Nc1c(Cl)cnc2ccc(-c3cnc(C(C)(C)O)nc3)c(F)c12)c1ccccc1F` (racemic) [Example 253, 2-(5-(3-chloro-5-fluoro-4-((1-(2-fluorophenyl)ethyl)amino)quinolin-6-yl)pyrimidin-2-yl)propan-2-ol] and `C[C@@H](Nc1c(Cl)cnc2cc(F)c(-c3cnc(N4CCC(C(C)(C)O)C4)nc3)cc12)c1ccccc1F` (mixture of isomers) [Example 283, 2-(1-(5-(3-chloro-7-fluoro-4-(((R)-1-(2-fluorophenyl)ethyl)amino)quinolin-6-yl)pyrimidin-2-yl)pyrrolidin-3-yl)propan-2-ol] cannot be ordered by IC50: less than 1000 nM for the first, less than 1000 nM for the second.

Compared with `C[C@@H](Nc1c(Cl)cnc2ccc(-c3cnc(C(C)(C)O)nc3)cc12)c1cc(C2=CCN(C(=O)OC(C)(C)C)CC2)ccc1F` [Example 337, tert-butyl (R)-4-(3-(1-((3-chloro-6-(2-(2-hydroxypropan-2-yl)pyrimidin-5-yl)quinolin-4-yl)amino)ethyl)-4-fluorophenyl)-3,6-dihydropyridine-1(2H)-carboxylate], `C[C@@H](Nc1c(Cl)cnc2ccc(-c3cnc(C(C)(C)O)nc3)cc12)c1cc(N2CCOC2=O)ccc1F` [Example 367, (R)-3-(3-(1-((3-chloro-6-(2-(2-hydroxypropan-2-yl)pyrimidin-5-yl)quinolin-4-yl)amino)ethyl)-4-fluorophenyl) oxazolidin-2-one] is lower in IC50: 1000 to 10000 nM for the first, less than 1000 nM for the second. The second is the more potent here.

`COc1ccc(-c2ccc(F)c([C@@H](C)Nc3c(Cl)cnc4ccccc34)c2)cn1` [Example 460, (R)-3-chloro-N-(1-(2-fluoro-5-(6-methoxypyridin-3-yl)phenyl)ethyl)quinolin-4-amine] and `COc1ccncc1-c1ccc(F)c([C@@H](C)Nc2c(Cl)cnc3ccccc23)c1` [Example 548, (R)-3-chloro-N-(1-(2-fluoro-5-(4-methoxypyridin-3-yl)phenyl)ethyl) quinolin-4-amine] cannot be ordered by IC50: less than 1000 nM for the first, less than 1000 nM for the second.

Compared with `CC(C)(O)c1ncc(-c2ccc3ncc(Cl)c(NCc4ccccc4C(F)(F)F)c3c2)cn1` [Example 146, 2-(5-(3-chloro-4-((2-(trifluoromethyl)benzyl)amino)quinolin-6-yl)pyrimidin-2-yl)propan-2-ol], `CCc1ncc(-c2ccc3ncc(Cl)c(N[C@H](C)c4ccccc4F)c3c2)cn1` [Example 223, (R)-3-chloro-6-(2-ethylpyrimidin-5-yl)-N-(1-(2-fluorophenyl)ethyl) quinolin-4-amine] is higher in IC50: less than 1000 nM for the first, 10000 to 25000 nM for the second. The first is the more potent here.

`C[C@@H](Nc1c(Cl)cnc2ccccc12)c1cc(-c2cccc(C#N)c2)ccc1F` [Example 539, (R)-3′-(1-((3-chloroquinolin-4-yl)amino)ethyl)-4′-fluoro-[1,1′-biphenyl]-3-carbonitrile] and `C[C@@H](Nc1c(Cl)cnc2ccc(-c3cnc(N4CCOCC4)nc3)cc12)c1ccccc1F` [Example 219, (R)-3-chloro-N-(1-(2-fluorophenyl)ethyl)-6-(2-morpholinopyrimidin-5-yl)quinolin-4-amine] cannot be ordered by IC50: less than 1000 nM for the first, less than 1000 nM for the second.

`C[C@@H](Nc1c(Cl)cnc2ccc(-c3cnc(N4CCN(C5CCNC5=O)CC4)nc3)cc12)c1ccccc1F` (mixture of isomers) [Example 112, 3-(4-(5-(3-chloro-4-(((R)-1-(2-fluorophenyl)ethyl)amino)quinolin-6-yl)pyrimidin-2-yl)piperazin-1-yl)pyrrolidin-2-one] and `CC(Nc1c(Cl)cnc2cc(F)c(-c3ccc(C4(O)CCC(C(=O)O)CC4)cc3)cc12)c1ccccc1F` (racemic) [Example 251, 4-(4-(3-chloro-7-fluoro-4-((1-(2-fluorophenyl)ethyl)amino)quinolin-6-yl)phenyl)-4-hydroxycyclohexane-1-carboxylic acid] cannot be ordered by IC50: less than 1000 nM for the first, less than 1000 nM for the second.

`CC(Nc1c(Cl)cnc2cc(F)c(-c3cnc(C4(O)CCS(=O)(=O)CC4)nc3)cc12)c1ccccc1F` (stereo not shown) [Example 289, 4-(5-(3-chloro-7-fluoro-4-((1-(2-fluorophenyl)ethyl)amino)quinolin-6-yl)pyrimidin-2-yl)-4-hydroxytetrahydro-2H-thiopyran 1,1-dioxide] and `CC(Nc1c(Cl)cnc2cc(F)c(-c3cnc(C(O)CO)nc3)cc12)c1ccccc1F` (racemic) [Example 300, 1-(5-(3-chloro-7-fluoro-4-((1-(2-fluorophenyl)ethyl)amino)quinolin-6-yl)pyrimidin-2-yl)ethane-1,2-diol] cannot be ordered by IC50: less than 1000 nM for the first, less than 1000 nM for the second.

`Cc1nc2cc(F)c(-c3cnc(C(C)(C)O)nc3)nc2c(N[C@@H](c2cc(CO)ccc2F)C(F)F)c1Cl` [Example 496, (S)-2-(5-(7-chloro-8-((2,2-difluoro-1-(2-fluoro-5-(hydroxymethyl)phenyl)ethyl)amino)-3-fluoro-6-methyl-1,5-naphthyridin-2-yl)pyrimidin-2-yl)propan-2-ol] and `Cc1nc2cc(F)c(-c3cnc(C(C)(C)O)nc3)nc2c(N[C@@H](c2cc(C(N)=O)ccc2F)C(F)F)c1Cl` [Example 497, (S)-3-(1-((3-chloro-7-fluoro-6-(2-(2-hydroxypropan-2-yl)pyrimidin-5-yl)-2-methyl-1,5-naphthyridin-4-yl)amino)-2,2-difluoroethyl)-4-fluorobenzamide] cannot be ordered by IC50: less than 1000 nM for the first, less than 1000 nM for the second.

First: CC(CC1CCCC1)Nc1c(Cl)cnc2ccc(-c3cnc(C(C)(C)O)nc3)cc12 (racemic) [Example 140, 2-(5-(3-chloro-4-((1-cyclopentylpropan-2-yl)amino)quinolin-6-yl)pyrimidin-2-yl)propan-2-ol]
Second: Cc1ccc(C)c(Nc2c(Cl)c(C(=O)N(C)C)nc3ccc(-c4ccc(C#N)nc4)cc23)c1 [Example 34, 3-chloro-6-(6-cyanopyridin-3-yl)-4-((2,5-dimethylphenyl)amino)-N,N-dimethylquinoline-2-carboxamide]
The IC50 of the first is lower: less than 1000 nM for the first, 1000 to 10000 nM for the second.
